{"source": "paper PMC6131539", "about": "“Behavioral Effects of a Potential Novel TAAR1 Antagonist” (Frontiers in Pharmacology, 2018)", "key": {"VTA dopamine neurons": {"system": "VTA dopamine neurons", "assay": "Electrophysiology: spontaneous firing of VTA dopamine neurons in slices", "type": "cell-based, C57Bl/6J mice", "conditions": "10 nM, bath applied 5 min; positive control", "description": "All electrophysiological recordings were performed in slice preparations from C57Bl/6J mice (P21-P30). Briefly, mice were anaesthetized with isoflurane and transcardially perfused with an ice-cold sucrose solution containing (in mM): 50 sucrose, 26.2 NaHCO3, 1.25 glucose, 4.9 MgCl2, 3 kynurenic acid, 0.1 CaCl2, and 1.32 ascorbic acid in bicarbonate-buffered solution (aCSF, described below). Mice were then decapitated and brains were extracted. […] Cells were visualized on an upright microscope using “Dodt-type” gradient contrast infrared optics ([Dodt et al., 2002]) and whole-cell recordings were made using a MultiClamp 700B amplifier (Axon Instruments, Union City, CA, United States). Recording electrodes (3–5 MΩ) were filled with (in mM): 136 potassium-D-gluconate, 4 MgCl2, 1.1 HEPES, 5, EGTA, 10 sodium creatine phosphate, 3.4 Mg-ATP, and 0.1 Na2GTP. […] Spontaneous firing activity was recorded in current-clamp mode. […] Firing data for all neurons was analyzed with the MiniAnalysis program (Synaptosoft) using the same criteria. Drug-induced changes in firing are expressed as a percentage of baseline. Drug effects were calculated by comparing the response during the baseline/pre-drug period to the response 5 min after onset of drug administration. […] We therefore assessed the effects of compound 22 on firing rate of dopamine neurons. […]"}, "human TAAR1 receptor": {"system": "human TAAR1 receptor", "parameters": "method as in Bradaia et al., 2009", "conditions": "ref Bradaia et al., 2009; cited from earlier work"}, "mouse TAAR1": {"target": "mouse TAAR1", "parameters": "method as in Bradaia et al., 2009", "conditions": "ref Bradaia et al., 2009; read-out: affinity for the mouse TAAR1; cited from earlier work"}}, "note": "pKi: −log10 of the molar value."}
{"smiles": "CCOc1cccc(NC(=O)c2ccc(N3CCCC3)c(C(F)(F)F)c2)c1", "note": "[EPPTB]", "values": [{"measurement": "increase in firing of dopamine neurons", "setting": "VTA dopamine neurons", "value": 74, "unit": "%"}, {"measurement": "binding to the human TAAR1 receptor", "setting": "human TAAR1 receptor", "value": "does not bind"}, {"measurement": "pKi", "setting": "mouse TAAR1", "value": 9.05}]}
